The source of these data is ChEMBL document CHEMBL3817754, “Synthesis and evaluation of donepezilferulic acid hybrids as multi-target-directed ligands against Alzheimer's disease” (Medchemcomm, 2016).

Calls of active or inactive are those of the source. The rule behind the calls is not given here.

As usually defined, the IC50 is the midpoint of a concentration-inhibition curve. One may read the Papp as a coefficient for how fast a substance crosses the barrier.

Series [1] addresses Acetylcholinesterase (Electrophorus electricus) (UniProt O42275). In words: Inhibition of electric eel acetylcholinesterase at 1000 uM preincubated for 5 mins followed by addition of acetylthiocholine iodide as substrate measured after 60 to 120 mins by Ellmans method. On the technique in general: DTNB colorimetry detects thiols as they appear.
Series [2] has as its target Cholinesterase (Equus caballus) (UniProt P81908). In words: Inhibition of equine serum butyrylcholinesterase at 1000 uM preincubated for 5 mins followed by addition of S-butyrylthiocholine iodide as substrate measured after 60 to 120 mins by Ellmans method.
Series [3] is described as follows: Selectivity index, ratio of IC50 for equine serum butyrylcholinesterase to IC50 for electric eel acetylcholinesterase.
The conditions of series [4]: DPPH radical solution, 30 min. In general terms: Loss of DPPH colour is used to gauge radical scavenging.
Description: Antioxidant activity assessed as DPPH radical scavenging activity incubated in dark for 30 mins by spectrophotometry
The target in series [5] is Acetylcholinesterase (Electrophorus electricus, UniProt O42275). In words: Inhibition of electric eel acetylcholinesterase preincubated for 5 mins followed by addition of acetylthiocholine iodide as substrate measured after 60 to 120 mins by Ellmans method.
Sequence of Acetylcholinesterase (Electrophorus electricus, UniProt O42275) (O42275 whole entry): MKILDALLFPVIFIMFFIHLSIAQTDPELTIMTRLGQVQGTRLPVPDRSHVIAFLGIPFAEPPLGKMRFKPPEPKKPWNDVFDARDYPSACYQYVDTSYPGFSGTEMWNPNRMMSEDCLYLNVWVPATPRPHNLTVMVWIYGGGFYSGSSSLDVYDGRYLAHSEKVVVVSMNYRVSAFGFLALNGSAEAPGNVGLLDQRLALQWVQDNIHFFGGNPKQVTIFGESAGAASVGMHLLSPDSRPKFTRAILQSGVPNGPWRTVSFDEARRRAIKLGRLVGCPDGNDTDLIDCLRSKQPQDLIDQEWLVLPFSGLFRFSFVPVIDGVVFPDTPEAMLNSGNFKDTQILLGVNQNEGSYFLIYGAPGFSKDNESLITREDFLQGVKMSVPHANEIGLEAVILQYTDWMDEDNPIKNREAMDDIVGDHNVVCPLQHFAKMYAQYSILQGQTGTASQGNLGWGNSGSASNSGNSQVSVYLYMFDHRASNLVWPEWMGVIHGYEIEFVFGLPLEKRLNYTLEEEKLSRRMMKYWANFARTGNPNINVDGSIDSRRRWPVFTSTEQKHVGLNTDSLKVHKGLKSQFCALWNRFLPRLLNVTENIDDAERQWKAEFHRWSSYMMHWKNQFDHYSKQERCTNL
Series [6] deals with Cholinesterase (Equus caballus, UniProt P81908). In words: Inhibition of equine serum butyrylcholinesterase preincubated for 5 mins followed by addition of S-butyrylthiocholine iodide as substrate measured after 60 to 120 mins by Ellmans method.
Sequence of Cholinesterase (Equus caballus, UniProt P81908) (P81908 whole entry): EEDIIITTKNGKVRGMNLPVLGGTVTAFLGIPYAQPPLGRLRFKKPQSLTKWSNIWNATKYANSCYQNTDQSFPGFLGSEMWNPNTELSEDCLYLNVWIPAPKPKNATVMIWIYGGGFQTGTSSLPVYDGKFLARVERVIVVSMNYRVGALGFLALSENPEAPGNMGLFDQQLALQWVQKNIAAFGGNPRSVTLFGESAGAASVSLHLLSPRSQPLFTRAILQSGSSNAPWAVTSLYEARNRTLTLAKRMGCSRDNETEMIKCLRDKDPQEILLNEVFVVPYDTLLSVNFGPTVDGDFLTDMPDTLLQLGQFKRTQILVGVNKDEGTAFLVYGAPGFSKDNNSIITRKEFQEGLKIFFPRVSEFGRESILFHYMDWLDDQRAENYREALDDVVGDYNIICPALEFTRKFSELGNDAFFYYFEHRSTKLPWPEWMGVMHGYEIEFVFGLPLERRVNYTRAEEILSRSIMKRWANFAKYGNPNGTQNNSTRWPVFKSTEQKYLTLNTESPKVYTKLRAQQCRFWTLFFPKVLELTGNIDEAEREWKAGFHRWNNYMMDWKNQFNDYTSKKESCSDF
Series [7] addresses Acetylcholinesterase (Homo sapiens, UniProt P22303). In words: Inhibition of human erythrocytes acetylcholinesterase preincubated for 5 mins followed by addition of acetylthiocholine iodide as substrate measured after 60 to 120 mins by Ellmans method.
Series [8] has as its target Cholinesterase (Homo sapiens, UniProt P06276). In words: Inhibition of human serum butyrylcholinesterase preincubated for 5 mins followed by addition of S-butyrylthiocholine iodide as substrate measured after 60 to 120 mins by Ellmans method.
A further series is filed under the species Homo sapiens. In words: Selectivity index, ratio of IC50 for human serum butyrylcholinesterase to IC50 for human erythrocytes acetylcholinesterase.
Series [9] deals with Acetylcholinesterase (Electrophorus electricus) (UniProt O42275). In words: Mixed-type inhibition of electric eel acetylcholinesterase at 0.2 to 0.8 uM preincubated for 5 mins followed by addition of acetylthiocholine iodide as substrate measured after 60 to 120 mins by Lineweaver-Burk plot analysis.
Sequence of Acetylcholinesterase (Electrophorus electricus) (O42275 24-633 limits assumed): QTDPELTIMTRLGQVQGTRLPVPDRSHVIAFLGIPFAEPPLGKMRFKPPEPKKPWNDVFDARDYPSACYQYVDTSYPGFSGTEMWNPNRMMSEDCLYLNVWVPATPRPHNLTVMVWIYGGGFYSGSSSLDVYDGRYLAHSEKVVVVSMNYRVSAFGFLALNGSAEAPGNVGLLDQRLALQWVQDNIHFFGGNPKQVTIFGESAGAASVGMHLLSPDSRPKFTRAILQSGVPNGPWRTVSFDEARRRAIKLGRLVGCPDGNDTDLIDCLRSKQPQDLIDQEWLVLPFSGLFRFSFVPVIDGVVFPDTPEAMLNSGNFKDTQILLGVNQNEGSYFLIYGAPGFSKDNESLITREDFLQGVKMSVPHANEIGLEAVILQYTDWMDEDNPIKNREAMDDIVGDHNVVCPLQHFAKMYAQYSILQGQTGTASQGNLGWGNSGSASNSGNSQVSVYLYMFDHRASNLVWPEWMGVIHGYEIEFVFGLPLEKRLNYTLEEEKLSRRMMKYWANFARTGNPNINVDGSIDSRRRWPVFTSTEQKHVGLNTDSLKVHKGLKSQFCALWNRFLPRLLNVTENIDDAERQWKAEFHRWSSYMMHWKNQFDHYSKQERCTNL
Series [10] concerns the target Cholinesterase (Equus caballus) (UniProt P81908). In words: Mixed-type inhibition of equine serum butyrylcholinesterase at 0.5 to 2 uM preincubated for 5 mins followed by addition of S-butyrylthiocholine iodide as substrate measured after 60 to 120 mins by Lineweaver-Burk plot analysis.
The nature of series [11]: Cytotoxicity against […] PC12 cells assessed as cell viability at 20 uM after 24 hrs by MTT assay. It counts as cell-based. As to conditions: rat, pc-12, 24 h. For orientation: Formazan colour is commonly taken as a measure of viable cells.
The test system of another series is PC-12. In words: Neuroprotective activity against H2O2 induced damage in […] PC12 cells assessed as cell viability at 1 to 10 uM preincubated for 4 hrs followed by H2O2 challenge for 20 hrs by MTT assay. The series is classed as functional, cell-based. As to conditions: Rattus norvegicus.
The nature of series [12]: Metal chelating activity assessed as copper-compound complex formation at 75 uM after 30 mins by UV-vis spectrometry. It counts as physicochemical. As to conditions: 0.5 h.
A short description of series [13]: Metal chelating activity assessed as ferrous-compound complex formation at 75 uM after 30 mins by UV-vis spectrometry. As to conditions: 0.5 h. It counts as physicochemical.
Series [14] can be described thus: Metal chelating activity assessed as ferric-compound complex formation at 75 uM after 30 mins by UV-vis spectrometry. It counts as physicochemical. As to conditions: 0.5 h.
The nature of series [15]: Metal chelating activity assessed as zinc-compound complex formation at 75 uM after 30 mins by UV-vis spectrometry. As to conditions: 0.5 h. The series is classed as physicochemical.
A further series is described as follows: in vitro. As to conditions: PAMPA.

Sequence of Cholinesterase (Equus caballus) (P81908 whole entry): as the sequence (P81908 whole entry) above
Sequence of Cholinesterase (Homo sapiens, UniProt P06276) (P06276 whole entry): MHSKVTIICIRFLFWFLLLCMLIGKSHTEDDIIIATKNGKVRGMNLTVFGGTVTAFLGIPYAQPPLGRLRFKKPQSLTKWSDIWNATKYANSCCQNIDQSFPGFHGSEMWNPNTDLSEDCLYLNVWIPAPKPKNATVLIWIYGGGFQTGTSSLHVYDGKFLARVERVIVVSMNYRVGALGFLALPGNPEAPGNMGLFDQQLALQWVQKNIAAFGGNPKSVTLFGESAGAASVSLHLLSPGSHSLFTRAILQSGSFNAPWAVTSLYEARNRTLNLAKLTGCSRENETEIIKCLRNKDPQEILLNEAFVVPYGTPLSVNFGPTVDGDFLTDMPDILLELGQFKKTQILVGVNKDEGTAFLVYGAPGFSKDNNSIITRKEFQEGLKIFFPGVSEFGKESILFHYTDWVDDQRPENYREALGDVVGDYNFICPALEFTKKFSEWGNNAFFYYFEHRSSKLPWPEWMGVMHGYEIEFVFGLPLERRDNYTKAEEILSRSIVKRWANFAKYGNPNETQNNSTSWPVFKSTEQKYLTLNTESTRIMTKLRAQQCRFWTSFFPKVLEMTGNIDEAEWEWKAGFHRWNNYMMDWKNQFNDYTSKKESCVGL
Sequence of Acetylcholinesterase (Homo sapiens, UniProt P22303) (P22303 whole entry): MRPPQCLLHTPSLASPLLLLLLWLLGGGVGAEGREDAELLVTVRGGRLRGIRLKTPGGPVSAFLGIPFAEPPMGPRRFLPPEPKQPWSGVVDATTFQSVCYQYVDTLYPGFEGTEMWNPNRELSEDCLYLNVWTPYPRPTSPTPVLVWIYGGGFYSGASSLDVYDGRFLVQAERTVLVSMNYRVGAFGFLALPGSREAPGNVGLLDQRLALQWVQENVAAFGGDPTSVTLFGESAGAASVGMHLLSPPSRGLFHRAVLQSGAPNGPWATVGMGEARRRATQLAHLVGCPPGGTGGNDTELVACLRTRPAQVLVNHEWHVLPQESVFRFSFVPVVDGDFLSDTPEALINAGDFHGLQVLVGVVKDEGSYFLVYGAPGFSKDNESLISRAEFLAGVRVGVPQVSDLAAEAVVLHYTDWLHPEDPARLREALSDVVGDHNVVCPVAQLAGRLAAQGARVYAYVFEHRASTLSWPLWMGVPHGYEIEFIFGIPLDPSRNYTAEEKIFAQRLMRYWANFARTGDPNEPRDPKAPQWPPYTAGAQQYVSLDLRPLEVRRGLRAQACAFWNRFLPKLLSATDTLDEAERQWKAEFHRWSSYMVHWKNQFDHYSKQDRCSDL

As for `COc1cc(/C=C/C(=O)CC(=O)/C=C/c2ccc(O)c(OC)c2)ccc1O` [CURCUMIN], the inhibition entry in series [1] and in [2] was “inactive” in each case. Also, the Ratio IC50 in series [3] is 4.43. Also, the IC50 in [4] stood at 23.3 µM.
On to `COc1cc(/C=C/C(=O)O)ccc1O` [FERULATE], for which the inhibition result in series [1] and in series [2] was “inactive” in each case. The Ratio IC50 in series [3] worked out at 4.95. The compound also had an IC50 in [4] of 30.6 µM.
Consider `NC1CCN(Cc2ccccc2)CC1`, for which the inhibition entry in series [1] and in [2] was “inactive” throughout.
As for `COc1cc(/C=C/C(=O)NCCC2CCN(Cc3ccccc3)CC2)cc(OC)c1O`, the IC50 on Acetylcholinesterase [5] came to 0.398 µM; at Cholinesterase [6] it was 0.976 µM; against Acetylcholinesterase [7], 0.321 µM; against Cholinesterase [8], 1.22 µM; in series [4], 24.9 µM. Besides, the values for the Ratio IC50 (in series [3]; in the series filed under Homo sapiens) were 2.2 and 3.8, respectively. Also, the inhibition result in series [9] and in [10] was “Active” each time. The Activity entry in series [11] is “Non-toxic”; in series [12], “Active”; in series [13] it was “Not Active”; in series [14] it was “Not Active”; in series [15], “Not Active”. Also, the outcome in the series on PC-12 was Active. Further, in “in vitro”, the Papp at 16 h, 5 mg/mL came out at 7.68 ×10⁻⁶ cm/s.
In the case of `COc1cc(/C=C/C(=O)NCCC2CCN(Cc3ccccc3)CC2)ccc1O`, the IC50 against Acetylcholinesterase [5] was 0.651 µM; at Cholinesterase [6], 1.22 µM; at Acetylcholinesterase [7], 0.729 µM; against Cholinesterase [8], 1.12 µM; in series [4], 34.1 µM. Moreover, the Ratio IC50 in series [3] was 1.87; in the series filed under Homo sapiens, 1.54. Further, the Activity result in series [11] is listed as “Non-toxic”. In addition, in the series on PC-12, the result was Active. Further, the Papp at 16 h, 5 mg/mL in “in vitro” was 5.16 ×10⁻⁶ cm/s.
